Measured values: patent publication US6420338B1, “Inhibition of the Src kinase family pathway as a method of treating HBV infection and hepatocellular carcinoma” (New York University Medical Center, priority 1997, dated 2002)

Test system: c-Src
Experiment: c-Src immunoprecipitation in vitro kinase assay (auto-phosphorylation and enolase trans-phosphorylation)
Format: cell-based
Details: serum-starved NIH 3T3 cells; PDGF 100 ng/ml for 5 min
Description: FIGS. 1A-1C Serum-starved NIH 3T3 cells were infected with AdCMV-X or -Xo viruses, c-Src or c-Fyn was immunoprecipitated, the pellet washed and assayed by incubation with the substrate enolase and [γ-^32P] ATP. Products were resolved by SDS-10%-PAGE then visualized and quantitiated by PhosphorImage analysis. c-Src (FIG. 1A) or c-Fyn (FIG. 1B) were immunoprecipitated 8 h p.i. from NIH 3T3 cell lysates expressing HBx or HBxo. Where indicated, cells were incubated with PDGF (100 ng/ml) for 5 min. (FIG. 1C) Transfected HBx activates c-Src in the cytoplasm. Chang cells were transfected with 10 μg pCMV-Xo (HBxo), PCMV-X (wt HBx) or pCMV-XNLS (nuclear HBx) expression plasmids, serum-starved for 24 h, c-Src immunoprecipitated and subjected to an in vitro trans-phosphorylation assay, then analyzed as above. […]
Src kinase assays were carried out essentially as described (Kypta et al., 1990, Cell 62:481-492). […] Src and Fyn kinase activity were measured by immunoprecipitating either Src (1 μg anti-Src antibodies) or Fyn (1 μg/ml anti-Fyn antibodies) from equal amounts of cell lysate. […] For the reactions containing the Src peptide substrate, TCA was added to a final concentration of 20%, an aliquot was spotted onto phosphocellulose paper (UBI), the filters were washed 3×5 minutes in 0.75% phosphoric acid and once in acetone, dried and analyzed by scintillation counting. […]

## PDGF
  activation of c-Src (auto- and trans-phosphorylation): 3-4 fold
